# Experiments:
# [1] = molecular target: T1, GST-hLGK1 (human liver GK) (Homo sapiens, UniProt P35557); experiment: Determination of GK activity value (GST-hLGK1, Mant-ATP, capillary electrophoresis); format: biochemical; conditions: glucokinase activation; GST-hLGK1, D-glucose, 37° C. for 60 min; concentration at midpoint between maximum activity value and control group activity value
# T1 construct: made in house; host or cells: Escherichia coli BL21 (Stratagene), plasmid pGEX6P-2/hLGK1
# T1 sequence (P35557 1-464 isoform P35557-3): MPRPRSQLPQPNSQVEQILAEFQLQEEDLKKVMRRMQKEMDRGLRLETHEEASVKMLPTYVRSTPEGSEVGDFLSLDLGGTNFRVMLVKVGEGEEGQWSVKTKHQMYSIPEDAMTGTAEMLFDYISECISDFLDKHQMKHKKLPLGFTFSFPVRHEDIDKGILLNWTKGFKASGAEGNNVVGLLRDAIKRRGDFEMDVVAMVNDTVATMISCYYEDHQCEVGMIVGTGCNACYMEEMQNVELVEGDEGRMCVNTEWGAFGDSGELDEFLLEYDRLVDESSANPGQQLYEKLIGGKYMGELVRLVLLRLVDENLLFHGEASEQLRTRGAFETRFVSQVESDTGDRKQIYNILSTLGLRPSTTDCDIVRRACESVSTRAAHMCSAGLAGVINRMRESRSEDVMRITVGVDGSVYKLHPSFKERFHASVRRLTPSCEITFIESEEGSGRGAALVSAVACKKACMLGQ
# Method: Plasmid DNA to be used for the expression of a protein (GST-hLGK1) containing GST (Glutathione S-transferase) added to the amino terminal of human liver GK in Escherichia coli was prepared as follows.
# BL21 strain (Stratagene) transformed with pGEX6P-2/hLGK1 obtained in Reference Example 1A was cultured with shaking at 37° C. for 14 hr in a 200 ml Erlenmeyer flask containing 50 ml of 100 μg/ml ampicillin-containing LB medium. The culture medium (25 ml) was diluted with 225 ml of 100 μg/ml ampicillin-containing LB medium, and further cultured with shaking at 37° C. for 1 hr in a 1 L Erlenmeyer flask. After culture, the Erlenmeyer flask was cooled on ice, 125 μL of 100 mM isopropyl-thio-β-D-galactopyranoside (IPTG) was added (final concentration 50 μM), and cultured at 17° C. for 20 hr. The culture medium was centrifuged, and the obtained fungus was disrupted by ultrasonication. The object protein (GST-hLGK1) was purified from the supernatant using Glutathione Sepharose 4B (Amersham Biosciences K.K.).
# A solution (5 μL) of test compound in 50% dimethyl sulfoxide was added to each well of 384 well black plate (Nalge Nunc International K.K.). Then, a solution ([…]) obtained by diluting GST-hLGK1 obtained in Reference Example 2A with measurement buffer (containing 50 mM HEPES (pH 7.4), 200 mM KCl, 5 mM MgCl2, 2.5 mM DTT and 50 μM 2′-(or-3′)-O—(N-methylanthraniloyl)adenosine 5′-triphosphate (Mant-ATP) (Jena Bioscience GmbH)) to 6 μg/mL was added to each well.
# Each well was stood at 37° C. for 10 min, and 25 mM D-glucose solution (10 μL) was added to start the reaction.
# Each well after the reaction was stood at 37° C. for 60 min, and the reaction was quenched by adding 25 μL of a quenching solution (containing 200 mM HEPES (pH 7.4), 20 mM MgCl2, 200 mM EDTA, 0.03% Triton-X 100, 0.3% Coating 3 reagent (Caliper Life Sciences, Inc.)).
# 2′-(or-3′)-O—(N-methylanthraniloyl)adenosine 5′-triphosphate (Mant-ATP, substrate) and Mant-ADP (reaction resultant product) were separated from each well after the reaction by a microchip type capillary electrophoresis apparatus 250 HTS (Caliper Life Sciences, Inc.). The reaction rate [(reaction resultant product peak height)/(reaction resultant product peak height+substrate peak height)×100(%)] was calculated from the ratio of the substrate peak height and reaction resultant product peak height obtained by fluorescence detection (excitation wavelength 355 nm, measurement wavelength 460 nm) and used as the index of GK activity.
# As a control group, the reaction rate was calculated in the same manner as above except that “solution in 50% dimethyl sulfoxide (without test compound)” was used instead of “solution of test compound in 50% dimethyl sulfoxide”.
# A concentration dependency curve of the test compound was drawn with the percentage obtained by dividing the reaction rate of the well added with the test compound (test compound addition group) by the reaction rate of the control group was taken as the GK activity value of the test compound, and the concentration of the test compound at the midpoint between the maximum activity value of the test compound addition group and the control group activity value is shown as EC50 value.
EC50 [1] [nM],melting point [°C],Structure (SMILES)
37,226,"CN(c1cccc2cc(C3=NCC4(CCN(CC(N)=O)CC4)S3)[nH]c12)S(=O)(=O)c1cccs1 [Example 414, 2-(2-{7-[methyl(2-thienylsulfonyl)amino]-1H-indol-2-yl}-1-thia-3,8-diazaspiro[4.5]dec-2-en-8-yl)acetamide]"
82,149 to 150,"CN(c1cccc2cc(C3=NCC(CC(N)=O)S3)[nH]c12)S(=O)(=O)c1ccccn1 (single isomer, unassigned) [Example 337, 2-(2-{7-[methyl(pyridin-2-ylsulfonyl)amino]-1H-indol-2-yl}-4,5-dihydro-1,3-thiazol-5-yl)acetamide]"
44,–,"O=S(=O)(c1cccs1)N(c1cccc2cc(C3=NCC(CN4CCOCC4)S3)[nH]c12)C(F)F (single isomer, unassigned) [Example 348, N-(difluoromethyl)-N-{2-[5-(morpholinomethyl)-4,5-dihydro-1,3-thiazol-2-yl]-1H-indol-7-yl}thiophene-2-sulfonamide]"
260,–,"COCCOc1cc(N(C)S(=O)(=O)c2ccccn2)c2[nH]c(C3=NCC(CN4CCS(=O)(=O)CC4)S3)cc2c1 (single isomer, unassigned) [Example 528, N-[2-{5-[(1,1-dioxidothiomorpholino)methyl]-4,5-dihydro-1,3-thiazol-2-yl}-5-(2-methoxyethoxy)-1H-indol-7-yl]-N-methylpyridine-2-sulfonamide]"
190,–,"CN(c1cc(OC(F)(F)F)cc2cc(C3=NCC(CC(N)=O)S3)[nH]c12)S(=O)(=O)c1cccs1 (single isomer, unassigned) [Example 520, 2-{2-[7-[methyl(2-thienylsulfonyl)amino]-5-(trifluoromethoxy)-1H-indol-2-yl]-4,5-dihydro-1,3-thiazol-5-yl}acetamide]"
530,–,"CC(=O)N1CCN(Cc2nnc(-c3cc4cccc(N(C)S(=O)(=O)c5cccs5)c4[nH]3)s2)CC1 [Example 198, N-(2-{5-[(4-acetylpiperazin-1-yl)methyl]-1,3,4-thiadiazol-2-yl}-1H-indol-7-yl)-N-methylthiophene-2-sulfonamide]"

# Reference: patent US7777047B2, “Indole compound” (Takeda Pharmaceutical Company Limited, priority 2006, dated 2010)
